The target of assay [1] is T1, PKC isoenzyme γ (Homo sapiens, UniProt P05129).
T1 construct: made in house; host or cells: baculovirus-insect cell expression system
The assay can be described thus: Protein kinase C inhibition assay, PKC isoenzyme γ. It counts as biochemical. The method, then:
A protein kinase C (PKC) assay is designed to duplicate the in vivo conditions required for protein kinase C function. Therefore, pH, salt and cofactor concentrations are similar to physiologic levels. Either lysine rich histone H1 (H1) or Myelin basic protein (Mbp) are used in the assay as the phosphorylation acceptor-protein because they are readily available and serve as good substrates for protein kinase C. Enzyme was prepared from baculovirus-insect cell expression systems.
In the screening assay, phosphatidylserine (PS) and DAG were co-sonicated to form unilamellar and multilamellar vesicles. The concentration of lipids in the assay were suboptimal to maximize the detection potential of the assay for inhibitors or activators. Potential effector compounds were added to the assay in dimethylsulfoxide at four concentrations to give final inhibitor concentrations of 1, 10, 50, and 150 μM, respectively.
The assay was started with the addition of enzyme and stopped after 10 min by the addition of 25% trichloroacetic acid (TCA) and 1.0 mg/ml bovine serum albumin (BSA). The radioactive histone product was retained and washed on glass fiber filters that allow the unreacted P-ATP to pass through. The amount of phosphorylation was determined by measuring radioactivity with a scintillation counter. Controls were included in every assay to measure background activity in the absence of enzyme, activity in the absence of lipids, and the maximum enzyme activity with saturating levels of the activator lipids.
Results of the protein kinase C assay are shown in Table 4 in columns labeled α, βII, γ, δ, ε, and .zeta. which represent various PKC isoenzymes. Results are show as IC50, which is the concentration of test compound needed to inhibit 50% of the protein kinase C activity in controls.

In assay [2] the test system is human neutrophils. Put plainly: Neutrophil Superoxide Anion (O2) Release Assay, PMA-stimulated. The class given is cell-based. Conditions: PMA-stimulated human neutrophils, read-out: Neutrophil Superoxide Release IC50. An excerpt:
Phorbol-12,13-myristate acetate (PMA) stimulates O2 production in human neutrophils which in turn reduces cytochrome C. Reducing cytochrome C increases absorbance and the change in optical density (OD) is proportional to the amount of O2 produced by PMA stimulation. Inhibition is expressed as an IC50 value and is the amount of test compound that will inhibit fifty percent of the PMA-stimulated respiratory outburst, i.e. O2^31 production (Lherer et al. (1981) J. Clinical lnvest. 68:1314; Roberts et al. (1982) J. Immunological Methods 49:193).
Human donor blood in 0.38% Sodium Citrate was centrifuged for 10 minutes at 160 ×g at room temperature. Platelet-rich plasma was removed leaving the buffy coat and the red cell-enriched fraction. Saline with 0.38% Sodium Citrate was added to this fraction up to the original blood volume. The enriched blood sample was diluted 1:1 (v:v) with 3% dextran T500 (Pharmacia) in normal saline and placed in a 60 cc syringe, inverted over a beaker and allowed to settle 30 minutes at room temperature.
Leukocyte-enriched plasma was removed from the syringe, placed into 50 ml polypropylene conical centrifuge tubes and underlaid with 15-20 ml Lymphocyte Separation Medium (LSM Organon Technica). The tubes were centrifuged for 40 minutes at 500×g at room temperature. The plasma, buffy coat and LSM were aspirated off the pellets which contained red blood cells and neutrophils.
The pellets were vortexed and 10 ml ice-cold 0.2% NaCl was added to lyse the red blood cells while vortexing again for 10 seconds. Ice-cold 1.6% NaCl was added while vortexing for 10 seconds. The cells were combined from multiple tubes, centrifuged 10 min at 400×g at 4° C. This red cell lysis was repeated and the resulting neutrophil pellet was washed once in Reaction HBSS (GIBCO, HBSS with Ca^++ and Mg^++,.238% HEPES, 0.1% dextrose, 0.1% RIA grade bovine serum albumin, PH 7.2). The cells were resuspended in 1/5 the original blood volume with Reaction HBSS, counted and adjusted to 4.0×10^6 cells/ml at 4° C.
Duplicate samples of neutrophils were tested in 12×75 mm polypropylene tubes containing 0.25 ml of the neutrophil suspension. Cytochrome C mix (0.25 ml, 6.0 mg/ml cytochrome C type IV (Sigma) plus 1200 U/ml bovine liver catalase (Sigma) in Reaction HBSS described above) was added. PMA was added at 2×the final concentration in 0.5 ml of Reaction HBSS. PMA final test concentration were 0.0, 0.3, 9.0, 27.0, and 81.0 ng/ml. The tubes were vortexed and incubated for 10 minutes at 37° C. with shaking. After chilling for 5 minutes at 4° C. and centrifuging for 10 minutes at 4° C., 550×g, 0.5 ml of supernatant was removed from each tube. Normal saline (0.5 ml) was added to each 0.5 ml sample of supernatant and the absorbance of each sample was read at 550 nm on a spectrophotometer (Shimadzu). The PMA concentration which gives nearly maximal stimulation of superoxide release was determined.
The test samples of neutrophils were prepared as in the PMA dose response through addition of cytochrome C mix. Then 0.4 ml of Reaction HBSS as a control or test agent at 2.5×final test concentration was added and the tubes were vortexed and incubated for 30 minutes at 37° C. with shaking. PMA (0.1 ml) was added at a 10× concentration of the final concentration determined above. The samples were incubated for 10 minutes at 37° C. with shaking, chilled for 5 minutes at 4° C., and then centrifuged for 5 minutes at 550×g at 4° C. The supernatant (0.5 ml) was diluted with 0.5 ml normal saline as above and the absorbance was then determined at 550 nm. The percent change was calculated as follows: [formula] D-sphingosine (Sigma) used as reference standard.
Human neutrophils were first isolated according to Lherer et al. ((1981) J. Clinical Invest. 68:1314) and then tested for stimulation of superoxide anion release with phorbol--12,13-myristate acetate (PMA) in a dose-dependent manner. […]

For assay [3], the system named is MCF-7 human breast tumor cell line. The assay can be described thus: Human Tumor Cell Growth Inhibition (3H-thymidine incorporation). The class given is cell-based. Here is the method: MCF-7 a human breast tumor cell line was obtained from the National Cancer Institute, Frederick, Md. Tumor cells were trypsinized with 0.05% trypsin obtained from GIBCO (Grand Island Biological Co. Laboratories, Grand Island, N.Y.), counted with a hemacytometer and seeded at a concentration of 7,500 cells/well in a 96 well microtiter plate and allowed to attach to the surface overnight. To determine a concentration response, test agents were serially diluted an […] added at 2× final concentration to quadruplicate cultures to bring the total volume of each well to […]. The microtiter plate was then incubated at 37° C., 5% CO2 for 24 hrs with ^3 H-thymidine added at a concentration of 0.5 mCi/well in […] of 0.05% trypsin (GIBCO) was added to each well. Cells were checked microscopically to determine detachment from surfaces, and plates were harvested with a cell harvester (PHD, Cambridge Technology, Inc.). Filter paper corresponding to wells were placed in scintillation vials and counted to determine the amount ^3 H-thymidine incorporated by the cells. Counts per minute (CPM) of quadruplicate cultures were averaged and a percent of control calculated for each test agent concentration by the following formula: [formula]
The IC50 or concentration necessary to inhibit the proliferation of cells by 50% compared to control, of each test agent was determined by plotting % control vs log concentration for each dilution and then linear forecasting the 50% control value onto the X axis on a Quattro Pro computer program. Only regression values with a correlation coefficient greater then 0.9 were considered acceptable.
For orientation: Incorporation of labelled thymidine or its analogues reports DNA synthesis.

Where [4] appears, read: Homo sapiens, MCF7, MCF-7, 24 hrs.

Each structure is given as a SMILES string. Read-outs that look alike come from different tables or passages of the source.

One may read the IC50 as the midpoint of a concentration-inhibition curve. As for `O=C1C(Nc2ccc(S(=O)(=O)NCCNc3ccc([N+](=O)[O-])cn3)cc2)=CC(=Nc2ccc(S(=O)(=O)NCCNc3ccc([N+](=O)[O-])cn3)cc2)c2ccccc21` [Compound 3ac], the IC50 is 22 µM in assay [1] (IC50 PKC γ); 0.05 µM in assay [2] (Homo sapiens, Neutrophil); 0.16 µM in assay [3] (setting [4]).
As for `Cc1cc(C)nc(NS(=O)(=O)c2cccc(N=C3C=C(Nc4cccc(S(=O)(=O)Nc5cc(C)cc(C)n5)c4)C(=O)c4ccccc43)c2)c1` [Compound 3ae], the half-maximal inhibitory concentration (IC50) in assay [1] (read-out: IC50 PKC γ) worked out at 16 µM; in assay [2] (Homo sapiens, Neutrophil), 0.04 µM; in assay [3] (setting [4]) it was 4.8 µM.
The corresponding values for `COc1cc(NS(=O)(=O)c2ccc(N=C3C=C(Nc4ccc(S(=O)(=O)Nc5cc(OC)cc(OC)c5)cc4)C(=O)c4ccccc43)cc2)cc(OC)c1` [Compound 3af] are 40 µM, 0.06 µM and 0.83 µM.
The corresponding values for `Cc1cc(C)nc(NS(=O)(=O)c2cc(N=C3C=C(Nc4ccc(C)c(S(=O)(=O)Nc5cc(C)cc(C)n5)c4)C(=O)c4ccccc43)ccc2C)c1` [Compound 3ag] are 20 µM, 0.04 µM and 2.4 µM.
For `Cc1cc(C)nc(NC(=O)c2ccc(N=C3C=C(Nc4ccc(C(=O)Nc5cc(C)cc(C)n5)cc4)C(=O)c4ccccc43)cc2)c1` [Compound 3ah], the IC50 in assay [1] (read-out: IC50 PKC γ) came out at 70 µM; in assay [2] (Homo sapiens, Neutrophil) it was 8.97 µM; in assay [3] (setting [4]), 1.4 µM.
As for `Cc1cc(C)nc(NC(=O)c2ccc(N=C3C=C(Nc4ccc(C(=O)Nc5nc(C)cc(C)n5)cc4)C(=O)c4ccccc43)cc2)n1` [Compound 3ai], the IC50 in assay [1] (read-out: IC50 PKC γ) is 9 µM; in assay [2] (Homo sapiens, Neutrophil) it was 4.02 µM; in assay [3] (setting [4]) it was 0.03 µM.
In the case of `Cc1noc(NS(=O)(=O)c2ccc(N=C3C=C(Nc4ccc(S(=O)(=O)Nc5onc(C)c5C)cc4)C(=O)c4ccccc43)cc2)c1C` [Compound 3b], the IC50 in assay [1] (read-out: IC50 PKC γ) was determined as 25 µM; in assay [2] (Homo sapiens, Neutrophil) it was 7.6 µM.
For the molecule `Cc1cc(C)nc(NS(=O)(=O)c2ccc(N=C3C=C(Nc4ccc(S(=O)(=O)Nc5nc(C)cc(C)n5)cc4)C(=O)c4ccccc43)cc2)n1` [Compound 3c], the IC50 stood at 21 µM in assay [1] (read-out: IC50 PKC γ); 0.77 µM in assay [2]; 7.03 µM in assay [3] (MCF-7, 24 hrs).
Turning to `Cc1cc(NS(=O)(=O)c2ccc(N=C3C=C(Nc4ccc(S(=O)(=O)Nc5cc(C)nc(C)n5)cc4)C(=O)c4ccccc43)cc2)nc(C)n1` [Compound 3d], the IC50 is 36 µM in assay [1] (read-out: IC50 PKC γ); 5.85 µM in assay [2] (Homo sapiens, Neutrophil); 17.2 µM in assay [3] (setting [4]).
On to `Cc1nnc(NS(=O)(=O)c2ccc(N=C3C=C(Nc4ccc(S(=O)(=O)Nc5nnc(C)s5)cc4)C(=O)c4ccccc43)cc2)s1` [Compound 3e], for which the 50% inhibitory concentration (IC50) in assay [1] (read-out: IC50 PKC γ) was determined as 22 µM; in assay [2] (Homo sapiens, Neutrophil), 8.38 µM.
In the case of `Cc1ccnc(NS(=O)(=O)c2ccc(N=C3C=C(Nc4ccc(S(=O)(=O)Nc5nccc(C)n5)cc4)C(=O)c4ccccc43)cc2)n1` [Compound 3f], the IC50 was 29 µM in assay [1] (read-out: IC50 PKC γ); 2.51 µM in assay [2] (Homo sapiens, Neutrophil); 16.6 µM in assay [3] (setting [4]).
In the case of `COc1cc(NS(=O)(=O)c2ccc(N=C3C=C(Nc4ccc(S(=O)(=O)Nc5cc(OC)nc(OC)n5)cc4)C(=O)c4ccccc43)cc2)nc(OC)n1` [Compound 3g], the results for the IC50 in assay [1] (read-out: IC50 PKC γ), in assay [2] and in assay [3] (setting [4]) were 14 µM, 2.75 µM and 16.5 µM, respectively.
The corresponding values for `COc1cnc(NS(=O)(=O)c2ccc(N=C3C=C(Nc4ccc(S(=O)(=O)Nc5ncc(OC)cn5)cc4)C(=O)c4ccccc43)cc2)nc1` [Compound 3h] are 55 µM, 8.7 µM and 12.2 µM.
For the molecule `O=C1C(Nc2ccc(S(=O)(=O)Nc3ccccn3)cc2)=CC(=Nc2ccc(S(=O)(=O)Nc3ccccn3)cc2)c2ccccc21` [Compound 3i], the IC50 is 15 µM in assay [1] (read-out: IC50 PKC γ); 0.1 µM in assay [2] (Homo sapiens, Neutrophil); 13.8 µM in assay [3] (setting [4]).
The corresponding values for `COc1ccc(NS(=O)(=O)c2ccc(N=C3C=C(Nc4ccc(S(=O)(=O)Nc5ccc(OC)nn5)cc4)C(=O)c4ccccc43)cc2)nn1` [Compound 3j] are 15 µM, 1.74 µM and 16.1 µM.
Take `O=C1C(Nc2ccc(S(=O)(=O)Nc3ccc(Cl)nn3)cc2)=CC(=Nc2ccc(S(=O)(=O)Nc3ccc(Cl)nn3)cc2)c2ccccc21` [Compound 3l]: the 50% inhibitory concentration (IC50) stood at 7 µM in assay [1] (read-out: IC50 PKC γ) and 0.9 µM in assay [2].
As for `O=C1C(Nc2ccc(S(=O)(=O)Nc3cnc4ccccc4n3)cc2)=CC(=Nc2ccc(S(=O)(=O)Nc3cnc4ccccc4n3)cc2)c2ccccc21` [Compound 3m], the concentration for half-maximal inhibition (IC50) in assay [1] (read-out: IC50 PKC γ) came out at 14 µM; in assay [2] (Homo sapiens, Neutrophil) it was 1.31 µM; in assay [3] (setting [4]), 17.9 µM.
Turning to `Cc1cc(NS(=O)(=O)c2ccc(N=C3C=C(Nc4ccc(S(=O)(=O)Nc5cc(C)on5)cc4)C(=O)c4ccccc43)cc2)no1` [Compound 6a], in assay [2], the IC50 came to 8 µM.
As to `Cc1nnc(NS(=O)(=O)c2ccc(N=C3C=C(Nc4ccc(S(=O)(=O)Nc5nnc(C)s5)cc4)C(=O)c4ccccc43)cc2)s1` [Compound 6e], the IC50 in assay [1] (read-out: IC50 PKC γ) amounted to 12 µM; in assay [2], 4.78 µM.
In the same order, the values of `O=C1C(Nc2ccc(S(=O)(=O)Nc3ccc(Cl)nn3)cc2)=CC(=Nc2ccc(S(=O)(=O)Nc3ccc(Cl)nn3)cc2)c2ccccc21` [Compound 6l] are 9 µM and 5.23 µM.

For the origin of these results see patent publication US5292737A, “N,N'-bis(sulfonamido)-2-amino-4-iminonaphthalen-1-ones and N,N'-bis(amido)-2-amino-4-iminonaphthalen-1-ones” (Sphinx Pharmaceuticals Corporation, priority 1992, dated 1994).
